In patent publication US5821353A, “DNA encoding 1,3 beta-D glucan synthase subunits” (Merck & Co., Inc., priority 1996, dated 1998):
Converted amounts (≈) assume the structure as drawn. Read-outs that look alike come from different tables or passages of the source. *1 amine or outer side, *2 acyl side, *3 side chain or, on linkers, in order; H or OH if unused. Where a SMILES comes first, the peptide text is derived from it. Bridges are numbered along the chain shown (N, C = ends). [ ]: non-standard residue; d: D form. The star is where a group is joined. ξ: configuration not given here. Orn(4R-OH,5R-OH) = O=C([C@H](C[C@@H](O)[C@@H](O)N[*:3])N[*:1])[*:2]; hTyr(3S-OH,4S-OH) = N[C@H](C(=O)O)[C@H](O)[C@@H](O)c1ccc(O)cc1; ξOrn(4,5-diOH) = O=C(C(CC(O)C(O)N[*:3])N[*:1])[*:2]; ξhTyr(βξ-OH,γξ-OH) = NC(C(=O)O)C(O)C(O)c1ccc(O)cc1; Pro(3S-OH,4S-Me) = C[C@H]1CN[C@H](C(=O)O)[C@H]1O; Benzoyl(4-octyloxy) = CCCCCCCCOc1ccc(C(=O)*)cc1; ξPro(3ξ-OH,4ξ-Me) = CC1CNC(C(=O)O)C1O; Palmitoyl = CCCCCCCCCCCCCCCC(=O)*; Hyp = O=C(O)[CH]1C[CH](O)CN1

What was measured:
[1] = system: S. cerevisiae haploid strain with the insertion-deletion allele (fks1-5::HIS3 / fks1-6::HIS3); assay: phenotype of haploid strain with FKS1 insertion-deletion allele; assay type: cell-based, Saccharomyces cerevisiae
Description: An insertion-deletion allele of the fks1-1 complementing DNA was created in the following manner. The 8.8-kb SphI-PstI fragment of pFF133 was inserted between the SphI and PstI sites of the polylinker of the E. coli vector pGEM-5Zf(+) (Promega, Madison, Wis.) giving plasmid pFF174. The 1.3-kb BamHI-XhoI HIS3 fragment from plasmid pJJ215 (J. S. Jones and L. Prakash, Yeast, 6:363-366 (1990)) was inserted by blunt-end ligation (see Current Protocols, p. 3.5.10) between the two KpnI sites of plasmid pFF174 giving plasmids pFF186 (sense orientation) and pFF187 (antisense orientation). The 6.6-kb insertion-deletion fragments were excised by digestion with SstI+SphI and purified by agarose gel electrophoresis. The insertion-deletion mutation was created by one-step gene replacement (see R. Rothstein, GYG, pp. 281-301). This disruption was confirmed by Southern blot hybridization analysis of genomic DNA digested with PstI and probed with the 8.8-kb SphI-PstI fragment from plasmid pFF174. The undisrupted parent gives a single 9.8-kb genomic fragment which hybridizes with the probe. A disruption mutant in which HIS3 is inserted in the sense orientation, for example YFF2409, gives 3.9- and 3.7-kb fragments, while an antisense disruption mutant, for example YFF2411, gives 4.9- and 2.7-kb fragments. […]

[2] = system: S. cerevisiae YFK007 (wild type); assay: primary screen, zone size on agar; assay type: cell-based, Saccharomyces cerevisiae; settings: 20 ng FK506, 10 mcg CsA, 10 mcg L733,560, 20 mcg aculeacin, 20 mcg papulacandin, 48 h
Experimental: (§1) Each strain is grown at 28°-30° C. in YPAD/10 mM CaCl2 medium with shaking at 220 rpm (to mid or late log phase). The cultures are diluted 1:10 with water, and the OD values of the dilutions are measured at 600 nm (against a blank of YPAD/10 mM CaCl2 similarly diluted 1:10 in water). The OD value is multiplied by 10 to estimate the OD of the culture. Portions (100 ml) of YPAD/10 mM CaCl2 medium containing 1.5% agar, equilibrated at 45° C. in a water bath, are seeded with culture such that the final cell density in the agar would have an OD value of 0.015 (i.e., 3×10^6 cfu/ml; a sample calculation is provided below). The seeded agar is poured into 500 cm^2 Nunc plates. Once the agar plates have solidified, 10 mcL aliquots of samples containing test compounds, such as fermentation extracts, are dissolved in water, 100% methanol or ethanol, or up to 50% DMSO and are placed on each member of the two-plate set in 11 by 8 arrays.
(§2) The plates are incubated for 48 h at 28°-30° C. Diameters of the zones are read to the outermost edge and recorded in mm. The clarity of the zone is reported as clear (no designation), hazy (h), or very hazy (vh). Very hazy zones are best seen by viewing the plate under an elevated light placed between the assay dish and a dark wall.

[3] = system: S. cerevisiae YFK532-7C (fks1-1); assay: primary screen, zone size on agar; assay type: cell-based, Saccharomyces cerevisiae; settings: 20 ng FK506, 10 mcg CsA, 10 mcg L733,560, 20 mcg aculeacin, 20 mcg papulacandin, 48 h
Experimental: as §1, §2

[4] = system: S. cerevisiae YFK798 (fks1-1 + CN); assay: primary screen, zone size on agar (calcineurin counter screen); assay type: cell-based, Saccharomyces cerevisiae; settings: 20 ng FK506, 10 mcg CsA, 10 mcg L733,560, 20 mcg aculeacin, 20 mcg papulacandin, 48 h
Experimental: Counter screening strains were devised for identifying calcineurin inhibitors. Overexpression of yeast calcineurin in the fks1-1 mutant (strain YFK798) constitutes the most general of these. […] Glucan synthase inhibitors show neither effect and thus can be distinguished from calcineurin inhibitors.
as §1, §2

[5] = system: S. cerevisiae R560-1C; assay: secondary screen, zone size on agar; assay type: cell-based, Saccharomyces cerevisiae; settings: 20 ng FK506, 10 mcg CsA, 10 mcg L733,560, 20 mcg aculeacin, 20 mcg papulacandin
Experimental: (§3) For positively identifying glucan synthase inhibitors, screening with strain R560-1C and its parent W303-1A was instituted in a manner identical to that described for calcineurin inhibitors. Complete loss of a zone, or marked reduction in size, on R560-1C versus W303-1A indicates a glucan synthase inhibitor. No zones are seen with calcineurin inhibitors using this pair of strains.
as §1, §2

[6] = system: S. cerevisiae W303-1A; assay: secondary screen, zone size on agar; assay type: cell-based, Saccharomyces cerevisiae; settings: 20 ng FK506, 10 mcg CsA, 10 mcg L733,560, 20 mcg aculeacin, 20 mcg papulacandin
Experimental: as §3, §1, §2

[7] = system: S. cerevisiae YFK532-7C (fks1-1) versus YFK007; assay: sensitivity of fks1-1 mutant relative to FKS1 wild-type strain; assay type: cell-based, Saccharomyces cerevisiae; settings: calcineurin inhibitors
[8] = system: S. cerevisiae MY2256; assay: MIC assay; assay type: cell-based; settings: Saccharomyces cerevisiae, MY2256, 42 h
Experimental: (§4) The sensitivities of pcr1(fks2-1) fks1-1 and pcr1(fks2-1) FKS1 strains to L-733,560, L-636,947 (Aculeacin), and L-687,781 (Dihydropapulocandin) were determined in MIC assays. Briefly, strains were grown to stationary phase in 5.0 ml of liquid YPAD medium. MY2256 precultures were grown in liquid YPAD10Ca. MIC assays were performed in flat well microtiter plates in triplicate. Each well of the microtiter plate was filled with 100 mcL of YPAD medium. To the first well, 100 mcL of a 4× solution of drug in YPAD medium was added. To serve as a control, a stock solution of […] of YPAD was made. 100 mcL of this solution was added to the initial well for strains grown in the presence of solvent but the absence of drug. Two-fold serial dilutions of the drug were performed down the plate.
(§5) Cultures were diluted to 5×10^5 cells/ml in YPAD (1 OD660 =3.3×10^7 cells/ml). 100 mcL of diluted culture was added to each well, resuspended, and incubated at 28° C. After 42 hours, cultures were resuspended and cells densities measured in an SLT Laboratories 340 ATTC microtiter plate reader.

[9] = system: S. cerevisiae YFK0931-07B; assay: MIC assay; assay type: cell-based; settings: Saccharomyces cerevisiae, YFK093107B, 42 h
Experimental: as §4, §5

[10] = system: S. cerevisiae FKS1 pcr1 spores; assay: drug phenotype of segregants from tetrad analysis; assay type: cell-based, Saccharomyces cerevisiae
Description: YFK0996-11B (MATa fks1-1 pcr1) was also crossed to YFK0005 (MATalpha FKS1 PCR1). In this cross, the pcr1 and fks1-1 mutations segregate independently. In the 16 four-spore and 20 three-spore tetrads, the segregation pattern of 1 Parental Ditype: 1 Non Parental Ditype : 4 Tetratype tetrads is indicative of two unlinked genes. […] Strains MY2257 (also known as YFK1088-23B, MATa FKS1 +pcr1), MY2258 (also known as YFK1088-16D, MATalpha FKS1+pcr1), and YFK1088-02D (MATa FKS1 +pcr1) were segregants from this cross. As shown in the table below, these segregants contain the pcr1 mutation in a wild-type FKS1 background and lack plasmid pDL1 present in the original mutant.

[11] = system: S. cerevisiae FKS1 pcr1 (fks2-1): MY2257, MY2258; assay: MIC assay; assay type: cell-based, Saccharomyces cerevisiae; settings: less than 10% growth, 42 hours
Experimental: as §4
as §5, with “reader. The MICs concentrations presented in the table below represent the concentrations of drug that result in less than 10% growth of the strain grown in the absence of drug.” for “reader.”

[12] = system: S. cerevisiae fks1-1 PCR1 YFK0688-14B; assay: MIC assay; assay type: cell-based, Saccharomyces cerevisiae; settings: less than 10% growth of no-drug control, 42 hours, 28° C.
Experimental: as §4
as §5, with “reader. The MICs concentrations presented in the table below represent the concentrations of drug that result in less than 10% growth of the strain grown in the absence of drug.” for “reader.”

[13] = system: S. cerevisiae fks1-1 pcr1 (fks2-1): MY2256, YFK0996-11B, MY2259, MY2260; assay: MIC assay; assay type: cell-based, Saccharomyces cerevisiae; settings: less than 10% growth, 42 hours
Experimental: as §4
as §5, with “reader. The MICs concentrations presented in the table below represent the concentrations of drug that result in less than 10% growth of the strain grown in the absence of drug.” for “reader.”

[14] = system: S. cerevisiae wild type YFK0005; assay: MIC assay; assay type: cell-based, Saccharomyces cerevisiae; settings: less than 10% growth of no-drug control, 42 hours, 28° C.
Experimental: as §4
as §5, with “reader. The MICs concentrations presented in the table below represent the concentrations of drug that result in less than 10% growth of the strain grown in the absence of drug.” for “reader.”

[15] = system: S. cerevisiae R560-1 / R560-1C (fks1-2); assay: liquid MIC assay of resistant clone; assay type: cell-based, Saccharomyces cerevisiae
Experimental: Strain W303-1A was transformed by the spheroplast method (MYG) with yeast genomic libraries obtained from D. Botstein (1982. Cell, 28:145-154). Transformants selected on uracil dropout medium were pooled and stored at -80° C. in 20% glycerol. After determining the titer (colony forming units(CFU)/ml), aliquots of the stocks were spread at .congruent.5×10^3 CFU per plate onto uracil dropout medium containing the semisynthetic echinocandin L-733,560 at 0.5 mcg/ml or 1.25 mcg/ml. This concentration of L-733,560 is sufficient to select for resistant clones. Twenty-seven drug resistant colonies were isolated. […] Briefly, L-733,560 was serially diluted across the wells of a sterile microtiter plate such that the concentration in each row ranged from 16 to 0.03 mcg/ml in 2-fold increments after an equal volume of a cell suspension in liquid uracil dropout medium was added. After 24 h at 30° C., plates were read in a spectrophotometer at a wavelength of 600 nm, and the percent of control growth in each well (relative to a no-drug control well) was calculated. […]
Because this strain was isolated as a transfornant from the genomic library, it was expected that resistance would be due to the gene residing on the plasmid contained in R560-1. […] R560-1C was mated to the wild type strain W303-1B, sporulated, dissected, and the sensitivity to L-733,560 quantitated by liquid MIC assay. […]

Row | SMILES | Primary Screen Zone size (mm) [2] | Primary Screen Zone size (mm) [3] | Primary Screen Zone size (mm) [4] | Secondary Screen Zone size (mm) [5] | Secondary Screen Zone size (mm) [6] | MIC [8] [µg/mL] | MIC ([9]; YFK0931-07B, read-out: MIC) [µg/mL] | drug resistance phenotype of spores [10] | also measured
1 | C=CC[C@@H]1/C=C(\C)C[C@H](C)C[C@H](OC)[C@H]2O[C@@](O)(C(=O)C(=O)N3CCCC[C@H]3C(=O)O[C@H](/C(C)=C/[C@@H]3CC[C@@H](O)[C@H](OC)C3)[C@H](C)[C@@H](O)CC1=O)[C@H](C)C[C@@H]2OC [FK506] | none | 15-17 mm | 13 mm | none | none | 0.06 (≈ 0.0746 µM) | 0.03 (≈ 0.0373 µM) | resistant | drug sensitivity phenotype [1]: hypersensitive; sensitivity of YFK532-7C relative to YFK007 [7]: at least a thousand fold more sensitive
2 | CCC1C=C(C)CC(C)CC(OC)C2OC(O)(C(=O)C(=O)N3CCCCC3C(=O)OC(C(C)=CC3CCC(O)C(OC)C3)C(C)C(O)CC1=O)C(C)CC2OC (stereo not shown) [FK520] |  |  |  |  |  | 0.06 (≈ 0.0758 µM) |  | resistant | MIC [9]: 0.06 µg/mL (≈ 0.0758 µM)
3 | CCCCCCCCCCCCCCCC(=O)NC1CC(O)C(O)NC(=O)C2C(O)C(C)CN2C(=O)C(C(C)O)NC(=O)C(C(O)C(O)c2ccc(O)cc2)NC(=O)C2CC(O)CN2C(=O)C(C(C)O)NC1=O [L-636,947, aculeacin] (Palmitoyl-[ξOrn(4,5-diOH)]T[Hyp][ξhTyr(βξ-OH,γξ-OH)]T[ξPro(3ξ-OH,4ξ-Me)]; lactam 1-C; configuration not given here) | 22-24 mm | 27-30 mm | 27-30 mm | 17-20 mm | 18-22 mm |  |  |  | MIC [11]: > 40 µg/mL; MIC [12]: 0.5 µg/mL (≈ 0.483 µM); MIC [13]: > 40 µg/mL; MIC [14]: 1 µg/mL (≈ 0.965 µM)
4 | CCCCCCCCOc1ccc(C(=O)N[C@H]2C[C@@H](O)[C@@H](O)NC(=O)[C@@H]3[C@@H](O)[C@@H](C)CN3C(=O)[C@H]([C@@H](C)O)NC(=O)[C@H]([C@H](O)[C@@H](O)c3ccc(O)cc3)NC(=O)[C@@H]3C[C@@H](O)CN3C(=O)[C@H]([C@@H](C)O)NC2=O)cc1 [L-646,991, cilofungin] ({Benzoyl(4-octyloxy)}-[Orn(4R-OH,5R-OH)]T[Hyp][hTyr(3S-OH,4S-OH)]T[Pro(3S-OH,4S-Me)]; lactam 1-C) |  |  |  |  |  |  |  |  | resistance phenotype in liquid MIC assay [15]: resistance phenotype
5 | CO[C@H]1C[C@@H]2CC[C@@H](C)[C@@](O)(O2)C(=O)C(=O)N2CCCC[C@H]2C(=O)O[C@H]([C@H](C)C[C@@H]2CC[C@@H](O)[C@H](OC)C2)CC(=O)[C@H](C)/C=C(\C)[C@@H](O)[C@@H](OC)C(=O)[C@H](C)C[C@H](C)/C=C/C=C/C=C/1C [Rapamycin, rapamycin] |  |  |  |  |  | 0.007 (≈ 0.00766 µM) | 0.007 (≈ 0.00766 µM) |  | 
